Reference: US20210087222A1, “COMPOUNDS FOR TREATING NEURODEGENERATIVE DISORDERS” (ETHNODYNE, priority 2017, published 2021)

Legend:
[1] = system: primary rat motor neurons injured with glutamate; experiment: Primary motor neuron culture survival after glutamate injury (in vitro ALS model); type: cell-based
Procedure: The aim of this study was to study the effect of CR591 on primary motor neuron culture from rat spinal cord (SC) injured by glutamate exposure (a well validated in vitro ALS model and model of motor neuron diseases).
Rat SC motor neurons were cultured as described by Martinou et al., Neuron. 1992 April; 8(4):737-44 and Wang et al., Hum Mol Genet. 2013 Dec. 1; 22(23):4706-19. Briefly, pregnant female rats (Wistar, Janvier labs) of 14 days gestation were killed by cervical dislocation. […] Cells were then centrifuged at 180 g for 10 min at +4° C. on a layer of BSA (3.5%) in L15 medium. […] The medium was changed every day.
The following conditions were assessed: • Control • + glutamate (5 μM 20 mn then 48 h) • + glutamate (5 μM 20 mn then 48 h)+CR591 1 pmol/L • + glutamate (5 μM 20 mn then 48 h)+CR591 10 pmol/L • + glutamate (5 μM 20 mn then 48 h)+CR591 100 pmol/L • + glutamate (5 μM 20 mn then 48 h)+CR591 1 nmol/L • + glutamate (5 μM 20 mn then 48 h)+CR591 10 nmol/L • + glutamate (5 μM 20 mn then 48 h)+CR591 100 nmol/L • + glutamate (5 μM 20 mn then 48 h)+CR591 1 μmol/L • + glutamate (5 μM 20 mn then 48 h)+CR591 10 μmol/L […]
For each condition, 6 wells were assessed, 30 pictures per well were taken using ImageXpress (Molecular Devices) with 20× magnification, to assess motor neuron survival (MAP-2). […]

[2] = system: MAG positive cells (OL) in primary cocultures of central neurons and oligodendrocytes; experiment: In vitro MS (myelination) model, MAG evaluation at day 18; type: cell-based, rat; details: 18 days of treatment, bell shape curve
Procedure: (§1) A reproducible in vitro myelination model based on primary cocultures of central neurons and oligodendrocytes culturing in 96-well plate is used and adapted to high throughput screening.
(§2) Neurons/oligodendrocytes were cultured as previously described by Charles et al., 2000. PNAS 97 7585-7590.
Briefly, pregnant Wistar female rats of 17 days gestation were killed by cervical dislocation (Janvier Labs, France) and the foetuses removed from the uterus. The forebrains were removed and placed in ice-cold medium of Leibovitz (L15; Pan Biotech, Germany) containing 2% of Penicillin-Streptomycin (Batch 1451013, PanBiotech) and 1% of bovine serum albumin (BSA) (Batch K180713, Pan Biotech). Cortexes were dissociated by trypsinisation for 20 min at 37° C., with Trypsin EDTA 1X (Batch 7310713, PanBiotech). The reaction was stopped by the addition of Dulbecco's modified Eagle's medium (DMEM) (Batch 9710913, PanBiotech) containing DNAase I grade II at 0.1 mg/mL (Batch H131108, PanBiotech) and 10% of foetal calf serum (Batch 41Q7218K, Invitrogen, France). Cells were then mechanically dissociated by 3 passages through a 10 mL pipette. Cells were centrifuged at 180×g for 10 min at 4° C. temperature on a layer of BSA (3.5%) in L15 medium. The supernatant was discarded and cells of the pellet were re-suspended in DMEM containing 10% of FCS. […] The supernatant was discarded and cells of pellet were re-suspended in a culture medium consisting of Neurobasal (Batch 1625353, Invitrogen) supplemented with 2% of B27 (Batch 1618508, Invitrogen), 2 mM of L-glutamine (Batch 6620314, PanBiotech), 2% of PS solution, 1% of foetal calf serum (FCS) and 10 ng/mL of platelet-derived growth factor (PDGF-AA) (Batch H131205, PanBiotech). […]
(§3) The immunolabeled cultures were automatically examined with ImageXpress (Molecular Devices) equipped with a LED at ×20 magnification. […] Number of A2B5 positive cells and number of MAG positive cells were automatically analyzed by using Custom module editor (Molecular Devices). […] All values were expressed as mean+/−SEM (s.e.mean) of the 6 wells. […]

[3] = system: OPC (precursor cells of oligodendrocytes) in primary cocultures of central neurons and oligodendrocytes; experiment: In vitro MS (myelination) model, OPC number (A2B5 positive cells) at day 12; type: cell-based, rat; details: 12 days treatment
Procedure: as §1, §2
Briefly, pregnant Wistar female rats of 17 days gestation were killed by cervical dislocation (Janvier Labs, France) and the foetuses removed from the uterus. The forebrains were removed and placed in ice-cold medium of Leibovitz (L15; Pan Biotech, Germany) containing 2% of Penicillin-Streptomycin (Batch 1451013, PanBiotech) and 1% of bovine serum albumin (BSA) (Batch K180713, Pan Biotech). Cortexes were dissociated by trypsinisation for 20 min at 37° C., with Trypsin EDTA 1X (Batch 7310713, PanBiotech). The reaction was stopped by the addition of Dulbecco's modified Eagle's medium (DMEM) (Batch 9710913, PanBiotech) containing DNAase I grade II at 0.1 mg/mL (Batch H131108, PanBiotech) and 10% of foetal calf serum (Batch 41Q7218K, Invitrogen, France). […]
as §3

[4] = system: human HCT-116 colorectal carcinoma; experiment: Cytotoxicity test, MTS cell growth inhibition assay; type: cell-based; details: HCT-116 cells, 72 h incubation, 8 concentrations, FIG. 1b
Procedure: (§4) Human MRC-5 cell line derived from normal lung tissue and human HCT-116 colorectal carcinoma were obtained from the American Type Culture Collection (ATCC, Rockville, Md.). Primary Human Umbilical Vein Endothelial Cells (HUVEC) isolated from the vein of the umbilical cord were obtained from Promocell (Germany). Cell lines were cultured according to the supplier's instructions. Human HCT-116 cells were grown in Gibco McCoy's 5A supplemented with 10% fetal calf serum (FCS) and 1% glutamine. Human MRC-5 cells were grown in DMEM supplemented with 10% fetal calf serum (FCS) and 1% glutamine. HUVECs were grown in Endothelial Cell Growth Medium 2 which is low-serum (2% V/V) media optimized for the cultivation of endothelial cells from large blood vessels.
(§5) Cells were counted using a Vi-cell XR (Beckman Coulter) and their viability assessed by 0.25% trypan blue dye exclusion. They were tested for the presence of mycoplasma before experiments with the Mycoplasma PCR Detection Kit (Applied Biological Materials Inc., Canada) in accordance with the manufacturer instructions and only mycoplasma-free cells were used for further investigations.
(§6) Cell lines were maintained at 37° C. in a humidified atmosphere containing 5% CO2. Cell growth inhibition was determined by an MTS assay according to the manufacturer's instructions (Promega, Madison, Wis., USA). […] After 24 h of culture, the cells were treated with the compound CR591 of example 1 at 8 different final concentrations. Each concentration was obtained from serial dilutions in culture medium starting from the stock solution. Control cells were treated with the vehicle. Experiments were performed in triplicate.
(§7) After 72 h of incubation, 20 μL of CellTiter 96® AQueous One Solution Reagent was added for 2 h before recording absorbance 490 nm with a spectrophotometric plate reader. The dose-response curves were plotted with Graph Prism software and the IC50 values were calculated using the Graph Prism software from polynomial curves (four or five-parameter logistic equations).

[5] = system: Human MRC-5 cell line derived from normal lung tissue; experiment: as above; type: cell-based; details: MRC-5 cells, 72 h incubation, 8 concentrations, FIG. 1a
Procedure: as §4, §5, §6, §7

[6] = system: Primary Human Umbilical Vein Endothelial Cells (HUVEC); experiment: as above; type: cell-based; details: 72 h incubation, 8 concentrations, FIG. 1c
Procedure: as §4, §5, §6, §7

Compound	protective effect of motor neuron (survival, MAP-2) ([1]; added 1 h before glutamate (5 μM 20 min, then 48 h), between 1 nM and 10 nM, FIG. 4)	concentration of maximal effect on MAG positive cells / myelination [2] [nM]	number of MAG positive cells ([2]; FIG. 3a)	myelination of neurons by OL (area of MAG expression) ([2]; FIG. 3b)	OPC number (A2B5 positive cells) ([3]; 1 pmol/L to 10 μmol/L, FIG. 2)	total number of OPCs at the highest doses ([3]; highest doses, inhibition of proliferation or toxic effect)	toxicity (cell growth inhibition) [4]	toxicity (cell growth inhibition) [5]	toxicity (cell growth inhibition) [6]	motor neuron death ([1]; glutamate 5 μM for 20 min, read 48 h later, versus control = 100%) [%]
CC1=C(CO)C(=O)O[C@@H]([C@@H](C)[C@H]2CCC3C4C[C@H](SC[C@H](N)C(=O)O)[C@]5(O)[C@@H](O)C=CC(=O)[C@]5(C)C4CC[C@@]32C)C1 (stereo partly shown) [CR591]	moderate and significant protective effect	1	able to increase the number of MAG positive cells	significantly improved the myelination of neurons by OL	did not show any significant increase	decrease of the total number of OPCs was observed	does not show any toxicity	does not show any toxicity	does not show any toxicity	
N[C@@H](CCC(=O)O)C(=O)O [Glutamate, glutamate, reference compound]										> 30
